Experimental data published in patent US7709486B2, “CXCR4 antagonists” (Genzyme Corporation, priority 1998, dated 2010).

Test system: collagen-induced arthritis (CIA)
Experimental: The experiments were performed in 8- to 12-week old mice, but in each experiment, the mutant and wild-type mice were age-matched with a 5 day limit. The male to female ratio was kept between 0.8 and 1.3 in each experimental group.
Native chicken collagen type II (EPC, Owensvillle, Mo.) was dissolved in 0.05 M acetic acid at 2 mg/ml by stirring overnight at 6° C., and emulsified in an equal volume of incomplete (IFA) or complete Freund's adjuvant (CFA) containing 1.5 mg/ml heat killed Mycobacterium butyricum (Difco, Detroit, Mich.). Mice were sensitized with a single 100 μl intradermal injection of the emulsion at the base of the tail. Mice were examined daily for signs of arthritis. The disease severity was recorded following a scoring system for each limb. Score 0: normal; score 1: redness and/or swelling in one joint; score 2: redness and/or swelling in more than one joint; score 3: redness and/or welling in the entire paw; score 4: deformity and/or ankylosis.
Spleens and fore and hind limbs were fixed in buffered saline—B5fixative (10% formalin with quicksilver). […] Limbs were subsequently decalcified overnight with formic acid. […] Severity of arthritis was evaluated using three parameters: infiltration of mono- and polymorphonuclear cells, hyperplasia of the synovium and parmus formation. Each parameter was scored on a scale from 0 to 3 (absent; weak, moderate and severe).

c1cc(CN2CCCNCCNCCCNCC2)ccc1CN1CCCNCCNCCCNCC1 [AMD3100, 1,1′-[1,4-phenylenebis(methylene)]bis-1,4,8,11-tetraazacyclotetradecane]
Body weight loss compared with control animals (collagen-injected mice, treated): did not demonstrate any significant body weight loss | Time until the single affected treated animal developed arthritic pathology (post-treatment): > 20 days
